Source: ChEMBL document CHEMBL1201862, “PubChem BioAssay data set” (2004)
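96-well plates; 48 h exposure; 5 concentrations. Endpoints by linear interpolation between flanking doses. Not reached: highest tested concentration assigned. GI50 is the concentration that inhibits growth by half.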 Activity calls are given as the source filed them. Cut-off read from the data, not from the text of the source: active = GI50 up to about 1.1 µM and inactive = higher.

Experiments:
Assay in all cases: DTP human tumour cell line panel, 48 h
[1] = tested on: SNB-78
[2] = tested on: XF498
[3] = tested on: ACHN
[4] = tested on: A549
[5] = tested on: SF-539
[6] = tested on: SF-268
[7] = tested on: MOLT-4
[8] = tested on: SF-295
[9] = tested on: COLO 205
[10] = tested on: 786-0
[11] = tested on: SR
[12] = tested on: SK-MEL-28
[13] = tested on: SK-MEL-5
[14] = tested on: DMS-114
[15] = tested on: UO-31
[16] = tested on: M14
[17] = tested on: HOP-62
[18] = tested on: KM-20L2
[19] = tested on: NCI-H226
[20] = tested on: HOP-18
[21] = tested on: Malme-3M
[22] = tested on: OVCAR-4
[23] = tested on: OVCAR-3
[24] = tested on: CCRF-CEM
[25] = tested on: SNB-75
[26] = tested on: HCT-15
[27] = tested on: SNB-19
[28] = tested on: HOP-92
[29] = tested on: HL-60
[30] = tested on: OVCAR-8
[31] = tested on: KM12
[32] = tested on: RXF 631
[33] = tested on: NCI-H23
[34] = tested on: A498
[35] = tested on: NCI-H460
[36] = tested on: HCT-116
[37] = tested on: HCC 2998
[38] = tested on: TK-10
[39] = tested on: HT-29
[40] = tested on: K562
[41] = tested on: SW-620
[42] = tested on: OVCAR-5
[43] = tested on: IGROV-1
[44] = tested on: UACC-62
[45] = tested on: DLD-1
[46] = tested on: SK-MEL-2
[47] = tested on: EKVX
[48] = tested on: LOX IMVI
[49] = tested on: CAKI-1
[50] = tested on: U-251
[51] = tested on: SK-OV-3
[52] = tested on: RXF 393
[53] = tested on: UACC-257
[54] = tested on: DMS-273
[55] = tested on: NCI-H522
[56] = tested on: SN12C

Measured: GI50

CC1=NOC(=O)/C1=C/c1ccc([N+](=O)[O-])cc1
inactive: [1] > 100 µM | [2] > 100 µM | [3] > 100 µM | [4] > 100 µM | [5] > 100 µM | [6] > 100 µM | [7] > 100 µM | [8] > 100 µM | [9] > 100 µM | [10] > 100 µM | [11] > 100 µM | [12] > 100 µM | [13] > 100 µM | [14] > 100 µM | [15] > 100 µM | [16] > 100 µM | [17] > 100 µM | [18] > 100 µM | [19] > 100 µM | [20] > 100 µM | [21] > 100 µM | [22] > 100 µM | [23] > 100 µM | [24] > 100 µM | [25] > 100 µM | [27] > 100 µM | [28] > 100 µM | [29] > 100 µM | [30] > 100 µM | [31] > 100 µM | [32] > 100 µM | [33] > 100 µM | [34] > 100 µM | [35] > 100 µM | [36] > 100 µM | [37] > 100 µM | [38] > 100 µM | [39] > 100 µM | [40] > 100 µM | [41] 59 µM | [42] > 100 µM | [43] > 100 µM | [44] > 100 µM | [45] > 100 µM | [46] > 100 µM | [47] > 100 µM | [48] > 100 µM | [49] > 100 µM | [50] > 100 µM | [51] > 100 µM | [52] > 100 µM | [53] > 100 µM | [54] > 100 µM | [55] > 100 µM | [56] > 100 µM
> 100 µM: [26]
